Test system: CD1 female mouse brain lipidome
Test: Brain-region lipid levels (HPLC/MS/MS lipidomics) 2 h after single i.p. 3 mg/kg CP 55,940 vs vehicle
Format: in vivo
Set-up: N-arachidonoyl phenylalanine level, Mean / N-stearoyl tryptophan level, Mean / N-stearoyl proline level, Mean / N-stearoyl leucine level, Mean / N-stearoyl phenylalanine level, Mean / N-stearoyl serine level, Mean / N-stearoyl methionine level, Mean: unit: moles per gram
Settings: cerebellum
Description: The Bloomington Institutional Animal Care and Use Committee of Indiana University reviewed and approved the animal procedures. Female mice from the CD1 strain were utilized to match our study examining THC’s effects on the brain lipidome ([Leishman et al., 2018]). Mice were given a single i.p. injection of either 3 mg/kg CP or 1:1:18 cremophor:ethanol:saline vehicle (please refer to the section “3 mg/kg CP Is Relevant for Synthetic Cannabinoid Abuse and Has Stronger Effects on the Female Mouse Brain Lipidome During Adolescence” for a justification of dose and use of female mice). Three different age groups were given injections: PND 35 and PND 50 adolescents, and adult mice (PND 113). At least eight mice in each age group received CP and at least eight received vehicle. Matching the THC study time course ([Leishman et al., 2018]), mice were sacrificed via rapid decapitation 2 h after injection. Brains were immediately removed and flash-frozen in liquid nitrogen, and then stored at -80°C until dissections were performed. Brains were dissected on an ice-cold dissection plate into the following regions: STR, HIPP, CER, THAL, CTX, HYP, MID, and STEM. These abbreviations for these brain areas will be used exclusively when discussing the results generated by these specific dissections. Each dissected area was immediately placed in liquid nitrogen and then stored at -80°C until used for lipid extraction.
Tissue extracts were performed as previously described ([Bradshaw et al., 2006]; [Stuart et al., 2013]; [Raboune et al., 2014]; [Leishman et al., 2016a],[b], [2017], [2018]). First, samples were shock frozen in liquid nitrogen, weighed, and transferred to a centrifuge tube. The mass of the largest sample was multiplied by 50 to determine how many milliliters of HPLC-grade methanol (Fisher, Fair Lawn, NJ, United States) to add. Then, samples were spiked with 500 pmol deuterium-labeled NAGly (d8NAGly; Cayman Chemical, Ann Arbor, MI, United States). Samples were placed on ice in darkness for 2 h then individually homogenized and centrifuged at 19,000 × g for 20 min at 20°C. Supernatants were diluted with HPLC water (purified in house) to make a solution of 75% water, 25% supernatant. Lipids were partially purified on C18 solid phase extraction columns (Agilent, Palo Alto, CA, United States). A series of four elutions with 1.5 mL of 60%, 75%, 85%, and 100% methanol were collected ([Stuart et al., 2013]; [Leishman et al., 2016a],[b], [2018]).
As previously described ([Bradshaw et al., 2006]; [Tan et al., 2006]; [Smoum et al., 2010]; [Stuart et al., 2013]; [Tortoriello et al., 2013]; [Raboune et al., 2014]; [Leishman et al., 2016a],[b], [2017], [2018]), samples were analyzed using an Applied Biosystems API 3000 triple quadrupole mass spectrometer with electrospray ionization (Foster City, CA, United States). Using an Agilent XDB-C18 reversed phase analytical column and optimized mobile phase gradients, 20 μL from each elution were chromatographed. Two Shimadzu 10ADvp pumps (Columbia, MD, United States) provided the pressure for gradient elution. Mobile phase A: 20% methanol, 80% water (v/v) and 1 mM ammonium acetate (Sigma, St. Louis, MO, United States). Mobile phase B: 100% methanol, 1 mM ammonium acetate. Every method run began with 0% mobile phase B, reached 100% mobile phase B flowing at 0.2 mL/min, and gradually returned to 0% mobile phase B.
This screening library will be referred to as the lipidome when discussing data from this study. HPLC/MS/MS data were analyzed using Analyst software (Applied Biosystems) ([Bradshaw et al., 2006]; [Tan et al., 2006]; [Stuart et al., 2013]; [Tortoriello et al., 2013]; [Raboune et al., 2014]; [Leishman et al., 2016a],[b], [2017], [2018]). Chromatograms (Supplementary Figure 3) were generated by determining the retention time of analytes from the analytical column with a [M-1] or [M+1] parent peak and a fragmentation peak corresponding to the programmed values. […]

[1] = PND 50 female mice, 3 mg/kg CP 55,940
[2] = WT adult female mice, 3mg/kg CP 55,940

CCCCCCC(C)(C)c1ccc([C@@H]2C[C@H](O)CC[C@H]2CCCO)c(O)c1 [CP 55,940]
N-arachidonoyl phenylalanine level, Mean [1]: 2.55E-13
N-arachidonoyl proline level, Mean [1]: BDL
N-arachidonoyl serine level, Mean [1]: 4.25E-12
N-arachidonoyl taurine level, Mean [1]: 1.97E-11
N-arachidonoyl tryptophan level, Mean [1]: BDL
N-arachidonoyl tyrosine level, Mean [1]: 2.66E-13
N-docosahexaenoyl GABA level, Mean [1]: 9.21E-13
N-docosahexaenoyl ethanolamine level, Mean [1]: 3.09E-11
N-docosahexaenoyl glycine level, Mean [1]: 4.01E-13
N-docosahexaenoyl leucine level, Mean [1]: 2.06E-13
N-docosahexaenoyl phenylalanine level, Mean [1]: 2.68E-13
N-docosahexaenoyl proline level, Mean [1]: BDL
N-docosahexaenoyl serine level, Mean [1]: 8.95E-12
N-docosahexaenoyl tryptophan level, Mean [1]: BDL
N-docosahexaenoyl tyrosine level, Mean [1]: 6.76E-13
N-linoleoyl GABA level, Mean [1]: 6.58E-13
N-linoleoyl alanine level, Mean [1]: 7.79E-14
N-linoleoyl ethanolamine level, Mean [1]: 3.74E-11
N-linoleoyl glycine level, Mean [1]: 1.39E-13
N-linoleoyl leucine level, Mean [1]: 5.12E-14
N-linoleoyl proline level, Mean [1]: BDL
N-linoleoyl serine level, Mean [1]: 5.53E-11
N-linoleoyl tryptophan level, Mean [1]: BDL
N-linoleoyl tyrosine level, Mean [1]: BDL
N-nervonoyl valine level, Mean [1]: BDL
N-oleoyl GABA level, Mean [1]: 2.42E-12
N-oleoyl alanine level, Mean [1]: 9.8E-13
N-oleoyl dopamine level, Mean [1]: BDL
N-oleoyl ethanolamine level, Mean [1]: 6.07E-11
N-oleoyl glycine level, Mean [1]: 1.13E-12
N-oleoyl leucine level, Mean [1]: 5.63E-13
N-oleoyl methionine level, Mean [1]: 2.55E-13
N-oleoyl phenylalanine level, Mean [1]: 1.01E-12
N-oleoyl proline level, Mean [1]: BDL
N-oleoyl serine level, Mean [1]: 1.05E-10
N-oleoyl tryptophan level, Mean [1]: BDL
N-oleoyl tyrosine level, Mean [1]: 3.12E-13
N-oleoyl valine level, Mean [1]: 4.78E-14
N-palmitoyl GABA level, Mean [1]: 5.13E-12
N-palmitoyl alanine level, Mean [1]: 2.64E-12
N-palmitoyl ethanolamine level, Mean [1]: 5.07E-11
N-palmitoyl glycine level, Mean [1]: 3.72E-12
N-palmitoyl leucine level, Mean [1]: 1.13E-12
N-palmitoyl methionine level, Mean [1]: 9.79E-13
N-palmitoyl phenylalanine level, Mean [1]: 1.27E-12
N-palmitoyl proline level, Mean [1]: BDL
N-palmitoyl serine level, Mean [1]: 1.43E-11
N-palmitoyl tryptophan level, Mean [1]: BDL
N-palmitoyl tyrosine level, Mean [1]: 6.09E-13
N-palmitoyl valine level, Mean [1]: 1.77E-13
N-stearoyl GABA level, Mean [1]: 5.74E-12
N-stearoyl alanine level, Mean [1]: 1.16E-12
N-stearoyl ethanolamine level, Mean [1]: 2.6E-11
N-stearoyl glycine level, Mean [1]: 5.05E-13
N-stearoyl leucine level, Mean [1]: 8.15E-13
N-stearoyl methionine level, Mean [1]: 4.91E-13
N-stearoyl phenylalanine level, Mean [1]: 1.17E-12
N-stearoyl proline level, Mean [1]: BDL
N-stearoyl serine level, Mean [1]: 3.32E-11
N-stearoyl tryptophan level, Mean [1]: BDL
N-stearoyl tyrosine level, Mean [1]: 1.08E-13
Oleic acid level, Mean [1]: 2.36E-10
PGE2 level, Mean [1]: 5.14E-11
THC level, Mean [1]: BDL
2-arachidonoyl glycerol level, Mean [2]: 4.32E-09
2-linoleoyl glycerol level, Mean [2]: 2.44E-10
2-oleoyl glycerol level, Mean [2]: 1.94E-09
2-palmitoyl glycerol level, Mean [2]: 1.01E-10
6-ketoPGF1α level, Mean [2]: 2.25E-11
Arachidonic acid level, Mean [2]: 7.51E-10
Linoleic acid level, Mean [2]: 6.75E-10
N-arachidonoyl GABA level, Mean [2]: 1.22E-11
N-arachidonoyl ethanolamine level, Mean [2]: 1.33E-11
N-arachidonoyl glycine level, Mean [2]: 1.43E-13
N-arachidonoyl phenylalanine level, Mean [2]: 4.52E-14
N-arachidonoyl taurine level, Mean [2]: 6.54E-11
N-docosahexaenoyl GABA level, Mean [2]: 8.3E-12
N-docosahexaenoyl ethanolamine level, Mean [2]: 2.78E-11
N-docosahexaenoyl glycine level, Mean [2]: 7.91E-14
N-docosahexaenoyl leucine level, Mean [2]: 1.51E-12
N-docosahexaenoyl phenylalanine level, Mean [2]: 3.04E-14
N-linoleoyl GABA level, Mean [2]: 7.7E-12
N-linoleoyl alanine level, Mean [2]: 2.18E-13
N-linoleoyl ethanolamine level, Mean [2]: 1.87E-11
N-linoleoyl glycine level, Mean [2]: 6.99E-14
N-linoleoyl serine level, Mean [2]: 1.99E-11
N-oleoyl GABA level, Mean [2]: 1.65E-11
N-oleoyl alanine level, Mean [2]: 2.34E-12
N-oleoyl ethanolamine level, Mean [2]: 2.04E-10
N-oleoyl glycine level, Mean [2]: 2.49E-13
N-oleoyl leucine level, Mean [2]: 1.06E-12
N-oleoyl phenylalanine level, Mean [2]: 6.03E-13
N-oleoyl serine level, Mean [2]: 1.05E-10
N-oleoyl tyrosine level, Mean [2]: 8.96E-13
N-oleoyl valine level, Mean [2]: 2.42E-14
N-palmitoyl GABA level, Mean [2]: 2.25E-11
N-palmitoyl alanine level, Mean [2]: 1.61E-12
N-palmitoyl ethanolamine level, Mean [2]: 6.47E-11
N-palmitoyl glycine level, Mean [2]: 1.24E-12
N-palmitoyl leucine level, Mean [2]: 1.34E-12
N-palmitoyl methionine level, Mean [2]: 6.89E-12
N-palmitoyl phenylalanine level, Mean [2]: 1.87E-13

— article PMC6277767, “Broad and Region-Specific Impacts of the Synthetic Cannabinoid CP 55,940 in Adolescent and Adult Female Mouse Brains” (Frontiers in Molecular Neuroscience, 2018)
